In data set [1] the test system is S. aureus JE2 (USA300). Put plainly: Antibacterial assay, MIC/MBC by broth microdilution (CLSI). It is filed as cell-based. The settings on record: for MIC values in words: S. aureus. On the procedure:
(§1) Antibacterial assay. The minimum inhibitory concentrations (MICs) and the minimum bactericidal concentrations (MBCs) were determined by the broth microdilution method as described in the CLSI (The Clinical & Laboratory Standards Institute) guidelines (Performance standards for antimicrobial susceptibility testing: Clinical and Laboratory Standards Institute (CLSI), Twenty-Fifth informational supplement. Document M100-S25: […]; Vol. 35). All bacterial strains were cultured in cation-adjusted Muller Hinton broth (CAMHB) up to log-phase and then diluted to give a concentration of 7.5×10^5 CFU/mL. The gold complexes were dissolved in DMSO or water as stock solutions, which were then serially diluted two-fold in a 96-well plate. Aliquots (100 μL) of the dilutions were mixed with equal volumes of the bacterium suspension in a 96 well plate (in triplicates). The plates were incubated at 37° C. for 18 h without shaking. Negative and positive controls were included in the same well plate with wells having the culture medium only and bacteria solution only, respectively. The sample concentration that gave inhibition values above 90% were determined as MICs as calculated from absorbance values at 600 nm (OD600) obtained using a Tecan SPARK IOM plate reader. To determine minimum bactericidal concentrations (MBCs), agar plates were treated with 5 μL sample solutions from each well, and then incubated at 37° C. for 18 h without shaking. The sample concentration that gave no colony formed on agar plates were determined as MBCs.
(§2) Selection of bacteria. The ESKAPE pathogens were chosen as they are responsible for the majority of nosocomial infections and also as they provide a good scope of strains including both Gram-negative and Gram-positive species. A. baumannii NCTC 13420 was originally identified in 24 hospitals in the UK during 2000-2003, which produced OXA-51-like β-lactamases, and was highly resistant to ampicillin, piperacillin, piperacillin/tazobactam, ceftazidime, cefotaxime, gentamicin and ciprofloxacin. P. aeruginosa NCTC13437 produces VIM-10 metallo-carbapenemase and VEB-1 (Vietnamese extended-spectrum beta-lactamase). Wild-type strain E. cloacae NCTC 13405 (originally named E. cloacae 684) was isolated from patients at the London Hospital during 1982-1983. This strain has inducible AmpC β-lactamase and is resistant to ampicillin/amoxicillin and cefoxitin. K. pneumoniae ATCC 700603 was isolated from the urine of a hospitalized patient in Richmond, Va. in 1994, and it produces SHV-18 extended spectrum beta-lactamase (ESBL). JE2 (USA300) is a methicillin-resistant S. aureus (MRSA) strain, also resistant to beta-lactams, ciprofloxacin, tetracycline, macrolides (erythromycin), lincosamides (clindamycin), streptogramin B, and mupirocin. E. faecium ATCC 700221, a positive fecal VRE (vancomycin-resistant enterococcus) isolate, is resistant to several antibiotics including vancomycin and teicoplanin. The quality control strain, Gram-negative E. coli ATCC 25922, was included in all assays and validated with ciprofloxacin and […].
(In general: In broth dilution the organism is exposed to a series of concentrations in liquid medium.)

A short description of data set [2]: Log P determination (n-octanol/water, FAAS). As to conditions: n-octanol/water, gold by FAAS; for logP: Log P. On the procedure: Log P Determination: Calibration curves. Milli-Q Water (150 mL) was added to n-octanol (150 mL), and the mixture was stirred for 3 days to allow both phases to reach saturation. The gold standard solution (1000 ppm Au in hydrochloric acid, Fisher Scientific) was diluted to 1, 2, 3, 4 and 5 ppm with n-octanol-saturated water, and the absorbance of the resulting solutions was measured by flame atomic absorption spectroscopy (FAAS, Agilent Technology 200 Series AA, equipped with a gold HC Lamp-Au coded). The absorbance data were plotted against Au concentration, and the resulting calibration curve was used for determining the concentration of the analogs in the aqueous phase.
To construct the standard calibration curve of the Au concentration in the n-octanol phase, compound 27 was used. The Au concentration in compound 27 was first calibrated against the aqueous gold standard. For this, 0.440 mg of compound 27 was weighed on a Sartorius MC5 microbalance, and then added to 22 mL of n-octanol-saturated water. […] For this, solutions of varying concentrations (0.99, 2.47, 4.94, 5.93, 9.88 ppm) of compound 27 in water-saturated n-octanol were prepared. The absorbance was measured by FAAS, and the data were plotted against the Au concentration to provide a second calibration curve, which was used for determining the Au concentration of the analogs in the n-octanol phase.
Determination of Au concentrations: Method 1. 0.5 to 1 mg of compound was weighed into a 2-mL Eppendorf tube containing 2 mL of n-octanol-saturated water. After shaking for about 4 h, the solution was centrifuged at 6000 rpm for 3 min. 1 mL of the supernatant was transferred to a new tube containing 1 mL of water-saturated n-octanol, and the mixture was shaken for 1 h. After centrifugation at 6000 rpm for 5 min, the two layers were collected and the gold concentration in each layer was determined by FAAS by comparing the absorbance to the first and second calibration curves.
Determination of Au concentrations: Method 2. […] For Method 2, 0.6 to 1 mg of compound was weighed into a 2-mL Eppendorf tube containing 1 mL of n-octanol-saturated water and 1 mL of water-saturated n-octanol. After shaking for 3-4 h, the mixture was centrifuged, and all liquid was transferred to a 15-mL tube. The liquid was then diluted with 2 mL of n-octanol-saturated saturated water and 2 mL of water-saturated n-octanol, and the mixture was shaken for another hour. After centrifugation at 6000 rpm for 5 min, the two layers were collected and the gold concentration in each layer was determined by FAAS by comparing the absorbance to the first and second calibration curves.
Log P was calculated as follows: log P=log[compound]oct/[compound]water

The test system of data set [3] is E. cloacae NCTC 13405. Briefly: Antibacterial assay, MIC/MBC by broth microdilution (CLSI). It is filed as cell-based. The settings on record: for activity in words: E. cloacae. On the procedure: as §1, §2
Data set [4] concerns E. coli ATCC 25922. The description is as above. The format is cell-based. The settings on record: repeated twice, a/b = both values. The protocol: as §1, §2
In data set [5] the test system is P. aeruginosa NCTC 13437. The description is as above. It is filed as cell-based. The settings on record: P. aeruginosa. On the procedure:
as §1, §2

Data set [6] has as its system A. baumannii NCTC 13420. Described as above. It is filed as cell-based. The settings on record: A. baumannii NCTC 13420; repeated twice, a/b = both values. The protocol:
as §1, §2

For data set [7], the system named is K. pneumoniae ATCC 700603. The description is as above. The format is cell-based. As to conditions: K. pneumoniae ATCC 700603; repeated twice, a/b = both values. The protocol:
as §1, §2

What is called logP is the decadic logarithm of the partition coefficient of the neutral form, usually between octanol and water. Low readings indicate lower lipophilicity, high ones higher lipophilicity. Turning to `CC[P+](CC)(CC)[Au-][S]CC(=O)OC` [Compound 25, (Methyl mercaptoacetatato) (triethylphosphine) gold(I)], the “MIC values in words” value in data set [1] is recorded as “nanomolar range”. Also, the logP in data set [2] is 1.75.
Consider `CC(=O)OCC1O[C@@H]([S][Au-][P+](c2ccccc2)(c2ccccc2)c2ccccc2)C(OC(C)=O)[C@@H](OC(C)=O)[C@@H]1OC(C)=O` (stereo partly drawn) [Compound 37, (2,3,4,6-Tetra-O-acetyl-1-thio-β-D-glucopyranosato)(triphenylphosphine) gold(I)], for which the MIC in data set [1] (S. aureus JE2 (USA300), repeated twice, a/b = both values) is listed as 1/2. In data set [2], the lipophilicity (logP) is over 3.87.
The term Log P denotes a log measure of how a compound divides between an organic and an aqueous phase. Low values mean lower lipophilicity, high ones higher lipophilicity. On to `CC[P+](CC)(CC)[Au-][S]c1ccc([N+](=O)[O-])cc1` [Compound 22, (4-Nitrobenzenethiolato)(triethylphosphine) gold(I)], for which the activity in words result in data set [3] is on record as “completely diminished the activity”. Also, in data set [1], the “MIC values in words” value is listed as “nanomolar range”. In data set [2], the logP was over 3 and the “Log P” value is given as over 3.28.
In data set [2], `CC[PH](CC)(CC)[Au][S][C@@H]1OC(COC(C)=O)[C@@H](OC(C)=O)[C@H](OC(C)=O)C1NC(C)=O` (stereo partly drawn) [Compound 3, (3,4,6-Tri-O-acetyl-2-N-acetyl-1-thio-β-D-glucopyranosato) (triethylphosphine) gold (1)] displayed a logP of 0.26.
As for `CC[P+](CC)(CC)[Au-][S][C@@H]1OC(CO)[C@@H](O)[C@H](O)C1NC(C)=O` (stereo partly drawn) [Compound 12, (2-Acetamido-2-deoxy-1-thio-β-D-glucopyranosato)(triethylphosphine) gold(I)], in data set [4], the MIC was 7/4. For the same molecule, in data set [2], the logP is -0.89.
Regarding `CC[P+](CC)(CC)[Au-][S]CCO` [Compound 24, (2-Mercaptoethanolato)(triethylphosphine) gold(I)], the MIC in data set [3] (E. cloacae NCTC 13405, repeated twice, a/b = both values) is given as 5/10. In addition, the activity in words result in data set [5] is “showed activity”. The molecule further displayed a logP in data set [2] of 1.19.
Consider `C[P+](C)(C)[Au-][Cl]` [Compound 28, (Trimethylphosphine) gold chloride], for which the MIC in data set [6] and in data set [7] was 7/13 in each case. Besides, the activity in words result in data set [5] was “showed activity”. Moreover, the logP in data set [2] is 0.16.
In the case of `CC[P+](CC)(CC)[Au-][S]c1ccc(C(F)(F)F)cc1` [Compound 23, (4-(Trifluromethyl)benzenethiolato)(triethylphosphine) gold(I)], in data set [3], the activity in words result is given as “completely diminished the activity”. In addition, in data set [2], the logP is over 3 and the “Log P” value is given as over 3.18.
As for `CC[P+](CC)(CC)[Au-][S]c1ccc(SCC(=O)NC2[C@H](OC(C)=O)OC(COC(C)=O)[C@@H](OC(C)=O)[C@@H]2OC(C)=O)cc1` (some centres unmarked) [Compound 8], the MIC in data set [6] was 76/19. For the same molecule, the logP in data set [2] was -0.36.
`CC(=O)OCC1O[C@@H]([S][Au-][P+](C)(C)C)C(OC(C)=O)[C@@H](OC(C)=O)[C@@H]1OC(C)=O` (stereo partly drawn) [Compound 35, (2,3,4,6-Tetra-O-acetyl-1-thio-β-D-glucopyranosato)(trimethylphosphine) gold(I)]: in data set [6], the MIC is given as 6/13. For the same molecule, the activity in words result in data set [5] is listed as “four-fold improvement in activity over 15”. This molecule also yielded a logP in data set [2] of 0.35.
Consider `CC[P+](CC)(CC)[Au-][S]CC(F)(F)F` [Compound 26, (2,2,2-Trifluoroethanethiolato)(triethylphosphine) gold(I)], for which, in data set [1], the “MIC values in words” value is on record as “nanomolar range”. The molecule further returned a logP in data set [2] of 2.08.
`CC(=O)OCC1O[C@@H]([S][Au-][P+](c2ccc(C(F)(F)F)cc2)(c2ccc(C(F)(F)F)cc2)c2ccc(C(F)(F)F)cc2)C(OC(C)=O)[C@@H](OC(C)=O)[C@@H]1OC(C)=O` (stereo partly drawn) [Compound 40, (2,3,4,6-Tetra-O-acetyl-1-thio-β-D-glucopyranosato)(tris(4-(trifluoromethyl)phenylphosphine)) gold(I)] came in with a logP in data set [2] of over 3.55.

The values are drawn from US20210198284A1, “GOLD COMPOSITIONS AND METHODS OF USE THEREOF” (THE UNIVERSITY OF MASSACHUSETTS, priority 2018, published 2021).
